Earlier results, collected in article PMC9516332 (Frontiers in Oncology, 2022).
Where two headings read alike, the source gives them in different places.

Key:
Conditions in all cases: cited from earlier work
[1] = molecular target: panel of 255 wild-type kinases (Homo sapiens, UniProt P29317)
[2] = molecular target: panel of 255 wild-type kinases (Homo sapiens, UniProt P51957)
[3] = molecular target: T1, panel of 255 wild-type kinases (Homo sapiens, UniProt P52333)
T1 sequence (P52333 1-1124): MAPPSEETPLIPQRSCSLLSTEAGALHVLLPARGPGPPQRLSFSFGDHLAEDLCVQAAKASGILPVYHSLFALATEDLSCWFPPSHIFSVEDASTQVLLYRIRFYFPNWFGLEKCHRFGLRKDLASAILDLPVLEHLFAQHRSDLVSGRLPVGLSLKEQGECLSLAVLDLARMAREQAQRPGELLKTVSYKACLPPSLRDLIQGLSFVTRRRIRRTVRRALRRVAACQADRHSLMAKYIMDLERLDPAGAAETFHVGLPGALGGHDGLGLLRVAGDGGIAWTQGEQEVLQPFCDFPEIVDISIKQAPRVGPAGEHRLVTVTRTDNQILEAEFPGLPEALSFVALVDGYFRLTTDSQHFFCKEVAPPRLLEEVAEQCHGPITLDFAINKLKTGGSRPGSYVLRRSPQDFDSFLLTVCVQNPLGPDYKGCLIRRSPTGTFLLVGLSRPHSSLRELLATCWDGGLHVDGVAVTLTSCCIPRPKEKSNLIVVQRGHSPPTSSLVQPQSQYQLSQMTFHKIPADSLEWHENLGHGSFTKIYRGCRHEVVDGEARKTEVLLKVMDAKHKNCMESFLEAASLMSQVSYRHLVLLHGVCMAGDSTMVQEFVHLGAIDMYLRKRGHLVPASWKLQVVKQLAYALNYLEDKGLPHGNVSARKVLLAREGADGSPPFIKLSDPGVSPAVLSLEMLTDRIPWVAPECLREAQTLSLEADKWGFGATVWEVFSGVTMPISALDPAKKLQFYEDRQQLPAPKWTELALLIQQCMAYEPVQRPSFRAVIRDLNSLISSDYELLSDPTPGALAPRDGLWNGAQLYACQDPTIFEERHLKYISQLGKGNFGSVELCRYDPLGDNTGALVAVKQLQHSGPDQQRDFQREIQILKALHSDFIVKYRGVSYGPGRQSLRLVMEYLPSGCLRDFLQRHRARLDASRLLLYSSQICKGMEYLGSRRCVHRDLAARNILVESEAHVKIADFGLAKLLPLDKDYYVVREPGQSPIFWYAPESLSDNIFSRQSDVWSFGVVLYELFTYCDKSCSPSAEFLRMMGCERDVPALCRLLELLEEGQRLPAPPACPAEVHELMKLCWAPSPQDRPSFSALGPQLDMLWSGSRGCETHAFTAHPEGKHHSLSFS

[4] = molecular target: panel of 255 wild-type kinases (Homo sapiens, UniProt Q15119)
[5] = molecular target: panel of 255 wild-type kinases (Homo sapiens, UniProt Q16816)
[6] = molecular target: panel of 255 wild-type kinases (Homo sapiens, UniProt Q9H2X6)
[7] = molecular target: T2, panel of 255 wild-type kinases (Homo sapiens, UniProt Q9NRM7)
T2 sequence (Q9NRM7 1-1088): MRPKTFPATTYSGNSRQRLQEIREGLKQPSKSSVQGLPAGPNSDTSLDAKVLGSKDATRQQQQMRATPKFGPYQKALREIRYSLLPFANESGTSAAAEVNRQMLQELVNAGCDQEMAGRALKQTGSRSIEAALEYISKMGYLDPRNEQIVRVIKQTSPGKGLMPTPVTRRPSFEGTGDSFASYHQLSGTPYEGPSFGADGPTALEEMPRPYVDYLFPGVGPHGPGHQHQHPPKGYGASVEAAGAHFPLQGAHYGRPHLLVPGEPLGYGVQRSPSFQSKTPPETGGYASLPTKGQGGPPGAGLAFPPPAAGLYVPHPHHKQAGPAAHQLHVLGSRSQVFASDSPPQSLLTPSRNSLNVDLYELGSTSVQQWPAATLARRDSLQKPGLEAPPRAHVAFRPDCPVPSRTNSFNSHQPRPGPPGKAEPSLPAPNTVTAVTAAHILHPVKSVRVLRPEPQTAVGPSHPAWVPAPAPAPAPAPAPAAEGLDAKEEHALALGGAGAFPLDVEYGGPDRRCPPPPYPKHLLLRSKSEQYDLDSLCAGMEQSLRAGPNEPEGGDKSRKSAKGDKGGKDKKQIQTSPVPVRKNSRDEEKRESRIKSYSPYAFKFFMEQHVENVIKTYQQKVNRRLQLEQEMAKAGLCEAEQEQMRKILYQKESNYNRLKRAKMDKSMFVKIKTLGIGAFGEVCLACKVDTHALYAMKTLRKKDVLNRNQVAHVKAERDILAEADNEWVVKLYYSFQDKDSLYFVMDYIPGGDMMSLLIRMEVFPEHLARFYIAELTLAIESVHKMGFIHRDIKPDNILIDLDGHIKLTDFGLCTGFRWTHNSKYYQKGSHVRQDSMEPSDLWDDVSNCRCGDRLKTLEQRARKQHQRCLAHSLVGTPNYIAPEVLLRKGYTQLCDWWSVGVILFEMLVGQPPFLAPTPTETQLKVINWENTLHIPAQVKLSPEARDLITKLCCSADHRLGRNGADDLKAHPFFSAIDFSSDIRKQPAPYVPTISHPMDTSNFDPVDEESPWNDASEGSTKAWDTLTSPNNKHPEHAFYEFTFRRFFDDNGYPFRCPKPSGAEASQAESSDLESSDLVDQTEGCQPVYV

[8] = kinase EPHA2, 1 µmol/L single concentration, ref DOI: 10.1158/1535-7163.MCT-18-0877
[9] = NEK4, 1 µmol/L single concentration, ref DOI: 10.1158/1535-7163.MCT-18-0877
[10] = kinase JAK3, 1 µmol/L single concentration, ref DOI: 10.1158/1535-7163.MCT-18-0877
[11] = kinase PDHK2, 1 µmol/L single concentration, ref DOI: 10.1158/1535-7163.MCT-18-0877
[12] = kinase PHKG1, 1 µmol/L single concentration, ref DOI: 10.1158/1535-7163.MCT-18-0877
[13] = kinase HIPK2, 1 µmol/L single concentration, ref DOI: 10.1158/1535-7163.MCT-18-0877
[14] = kinase LATS2, 1 µmol/L single concentration, ref DOI: 10.1158/1535-7163.MCT-18-0877
[15] = kinase EPHA2, 1 µmol/L single concentration, ref DOI: 10.1371/journal.pone.0092146
[16] = NEK4, 1 µmol/L single concentration, ref DOI: 10.1371/journal.pone.0092146
[17] = kinase JAK3, 1 µmol/L single concentration, ref DOI: 10.1371/journal.pone.0092146
[18] = kinase PDHK2, 1 µmol/L single concentration, ref DOI: 10.1371/journal.pone.0092146
[19] = kinase PHKG1, 1 µmol/L single concentration, ref DOI: 10.1371/journal.pone.0092146
[20] = kinase HIPK2, 1 µmol/L single concentration, ref DOI: 10.1371/journal.pone.0092146
[21] = kinase LATS2, 1 µmol/L single concentration, ref DOI: 10.1371/journal.pone.0092146

## O=C(c1ccc(F)c(F)c1Nc1ccc(I)cc1F)N1CC(O)([C@@H]2CCCCN2)C1 [cobimetinib]
[1]; [8]
  %-inhibition at 1 µmol/L, EPHA2: 2.79%
[2]; [9]
  %-inhibition, NEK4: 5%
[3]; [10]
  %-inhibition at 1 µmol/L, JAK3: -3.25%
[4]; [11]
  %-inhibition at 1 µmol/L, PDHK2: -0.379%
[5]; [12]
  %-inhibition at 1 µmol/L, PHKG1: 3%
[6]; [13]
  %-inhibition at 1 µmol/L, HIPK2: 1.68%
[7]; [14]
  %-inhibition at 1 µmol/L, LATS2: 1.46%

## CO[C@@H]1[C@H](N(C)C(=O)c2ccccc2)C[C@H]2O[C@]1(C)n1c3ccccc3c3c4c(c5c6ccccc6n2c5c31)C(=O)NC4 [midostaurin]
[1]; [8]
  %-inhibition at 1 µmol/L, EPHA2: 3.36%
[2]; [9]
  %-inhibition, NEK4: 26%
[3]; [10]
  %-inhibition at 1 µmol/L, JAK3: 100%
[4]; [11]
  %-inhibition at 1 µmol/L, PDHK2: -1.18%
[5]; [12]
  %-inhibition at 1 µmol/L, PHKG1: 97%
[6]; [13]
  %-inhibition at 1 µmol/L, HIPK2: 34%
[7]; [14]
  %-inhibition at 1 µmol/L, LATS2: 86%

## C=CC(=O)N1CCC[C@@H](n2nc(-c3ccc(Oc4ccccc4)cc3)c3c(N)ncnc32)C1 [ibrutinib]
[1]; [8]
  %-inhibition at 1 µmol/L, EPHA2: 7%
[2]; [9]
  %-inhibition, NEK4: 4.65%
[3]; [10]
  %-inhibition at 1 µmol/L, JAK3: 91%
[4]; [11]
  %-inhibition at 1 µmol/L, PDHK2: -1.08%
[5]; [12]
  %-inhibition at 1 µmol/L, PHKG1: 1.53%
[6]; [13]
  %-inhibition at 1 µmol/L, HIPK2: 2%
[7]; [14]
  %-inhibition at 1 µmol/L, LATS2: 5.45%

## C[C@@H](Oc1cc(-c2cnn(C3CCNCC3)c2)cnc1N)c1c(Cl)ccc(F)c1Cl [crizotinib]
[1]; [15]
  %-inhibition at 1 µmol/L, EPHA2: 86%
[2]; [16]
  %-inhibition, NEK4: 4.57%
[3]; [17]
  %-inhibition at 1 µmol/L, JAK3: 77%
[4]; [18]
  %-inhibition at 1 µmol/L, PDHK2: -3.51%
[5]; [19]
  %-inhibition at 1 µmol/L, PHKG1: 2.74%
[6]; [20]
  %-inhibition at 1 µmol/L, HIPK2: -6.53%
[7]; [21]
  %-inhibition at 1 µmol/L, LATS2: -6%

## Cc1cc(Nc2ncc(Cl)c(Nc3ccccc3S(=O)(=O)C(C)C)n2)c(OC(C)C)cc1C1CCNCC1 [ceritinib]
[1]; [8]
  %-inhibition at 1 µmol/L, EPHA2: 5.69%
[2]; [9]
  %-inhibition, NEK4: -3.48%
[3]; [10]
  %-inhibition at 1 µmol/L, JAK3: 2.84%
[4]; [11]
  %-inhibition at 1 µmol/L, PDHK2: -1.41%
[5]; [12]
  %-inhibition at 1 µmol/L, PHKG1: 91%
[6]; [13]
  %-inhibition at 1 µmol/L, HIPK2: 37%
[7]; [14]
  %-inhibition at 1 µmol/L, LATS2: 2.29%

## CC(C)(C)c1nc(-c2cccc(NS(=O)(=O)c3c(F)cccc3F)c2F)c(-c2ccnc(N)n2)s1 [dabrafenib]
[1]; [15]
  %-inhibition at 1 µmol/L, EPHA2: 7%
[2]; [16]
  %-inhibition, NEK4: 4%
[3]; [17]
  %-inhibition at 1 µmol/L, JAK3: 22%
[4]; [18]
  %-inhibition at 1 µmol/L, PDHK2: 0.108%
[5]; [19]
  %-inhibition at 1 µmol/L, PHKG1: -0.59%
[6]; [20]
  %-inhibition at 1 µmol/L, HIPK2: 42%
[7]; [21]
  %-inhibition at 1 µmol/L, LATS2: 0.57%

## C=CC(=O)Nc1cc(Nc2nccc(-c3cn(C)c4ccccc34)n2)c(OC)cc1N(C)CCN(C)C [osimertinib]
[1]; [8]
  %-inhibition at 1 µmol/L, EPHA2: 3.35%
[2]; [9]
  %-inhibition, NEK4: 6%
[3]; [10]
  %-inhibition at 1 µmol/L, JAK3: 97%
[4]; [11]
  %-inhibition at 1 µmol/L, PDHK2: -2%
[5]; [12]
  %-inhibition at 1 µmol/L, PHKG1: 38%
[6]; [13]
  %-inhibition at 1 µmol/L, HIPK2: 40%
[7]; [14]
  %-inhibition at 1 µmol/L, LATS2: 5%

## CC#CC(=O)N1CCC[C@H]1c1nc(-c2ccc(C(=O)Nc3ccccn3)cc2)c2c(N)nccn12 [acalabrutinib]
[1]; [8]
  %-inhibition at 1 µmol/L, EPHA2: -3.6%
[2]; [9]
  %-inhibition, NEK4: -4.76%
[3]; [10]
  %-inhibition at 1 µmol/L, JAK3: -1%
[4]; [11]
  %-inhibition at 1 µmol/L, PDHK2: 0.164%
[5]; [12]
  %-inhibition at 1 µmol/L, PHKG1: -4%
[6]; [13]
  %-inhibition at 1 µmol/L, HIPK2: -11%
[7]; [14]
  %-inhibition at 1 µmol/L, LATS2: -7.45%

## COc1cc(N2CCC(N3CCN(C)CC3)CC2)ccc1Nc1ncc(Cl)c(Nc2ccccc2P(C)(C)=O)n1 [brigatinib]
[1]
  %-inhibition at 1 µmol/L, EPHA2: -2.16%
[2]
  %-inhibition, NEK4: 25%
[3]
  %-inhibition at 1 µmol/L, JAK3: 97%
[4]
  %-inhibition at 1 µmol/L, PDHK2: 2%
[5]
  %-inhibition at 1 µmol/L, PHKG1: 96%
[6]
  %-inhibition at 1 µmol/L, HIPK2: 9%
[7]
  %-inhibition at 1 µmol/L, LATS2: 49%

## CCCS(=O)(=O)Nc1ccc(F)c(C(=O)c2c[nH]c3ncc(-c4ccc(Cl)cc4)cc23)c1F [vemurafenib]
[1]; [15]
  %-inhibition at 1 µmol/L, EPHA2: 0.715%
[2]; [16]
  %-inhibition, NEK4: -0.416%
[3]; [17]
  %-inhibition at 1 µmol/L, JAK3: 10%
[4]; [18]
  %-inhibition at 1 µmol/L, PDHK2: 3.73%
[5]; [19]
  %-inhibition at 1 µmol/L, PHKG1: -0.913%
[6]; [20]
  %-inhibition at 1 µmol/L, HIPK2: -5%
[7]; [21]
  %-inhibition at 1 µmol/L, LATS2: -2.28%

## CCc1cc2c(cc1N1CCC(N3CCOCC3)CC1)C(C)(C)c1[nH]c3cc(C#N)ccc3c1C2=O [alectinib]
[1]; [8]
  %-inhibition at 1 µmol/L, EPHA2: 1.88%
[2]; [9]
  %-inhibition, NEK4: -1.16%
[3]; [10]
  %-inhibition at 1 µmol/L, JAK3: 5.58%
[4]; [11]
  %-inhibition at 1 µmol/L, PDHK2: 0.393%
[5]; [12]
  %-inhibition at 1 µmol/L, PHKG1: 78%
[6]; [13]
  %-inhibition at 1 µmol/L, HIPK2: 8%
[7]; [14]
  %-inhibition at 1 µmol/L, LATS2: 1.69%

## CC(=O)Nc1cccc(-n2c(=O)n(C3CC3)c(=O)c3c(Nc4ccc(I)cc4F)n(C)c(=O)c(C)c32)c1 [trametinib]
[1]; [15]
  %-inhibition at 1 µmol/L, EPHA2: -8.53%
[2]; [16]
  %-inhibition, NEK4: 2%
[3]; [17]
  %-inhibition at 1 µmol/L, JAK3: 6%
[4]; [18]
  %-inhibition at 1 µmol/L, PDHK2: -0.542%
[5]; [19]
  %-inhibition at 1 µmol/L, PHKG1: -2.24%
[6]; [20]
  %-inhibition at 1 µmol/L, HIPK2: 0.155%
[7]; [21]
  %-inhibition at 1 µmol/L, LATS2: 1.87%
